Experiments:
[1] = system: thrombi; test: In vitro thrombolytic effect on capillary thrombi (24 h, 37° C.); format: biochemical, Wistar rats
Method: Nine female Wistar rats were used. Blood samples were taken from postorbital venous plexus using hard neutral glass capillary, 4 capillaries for each rat and 36 capillaries in total. The capillaries which contained the blood samples were left over night and the thrombi were then removed. The 4 thrombus samples of each rat were placed into test tubes containing 1 ml NS solution, 1000 U urokinase in 1 ml NS solution, 1 mg Rb2 (80%) in 1 ml NS solution and 1 mg Rb2 (98%) in 1 ml NS solution, respectively. All the test tubes were placed into a water bath at a temperature of 37° C. with shaking at an interval of 30 minutes. 24 hours later, the solutions were decanted, the remaining thrombi were weighed and the thrombolysis rate was calculated. Thrombolysis rate=(starting weight of thrombus−remaining weight of thrombus)/starting weight of thrombus×100%

[2] = system: KunMing mice; test: Auricle microcirculation in mice with Isoprel-induced acute myocardial necrosis; format: in vivo; conditions: 40 mg/kg intraperitoneal Day 1-7, Isoprel 7.5 mg/kg sc Day 5 and 6, 30 min after last dose
Method: (§1) 20 KunMing mice, 10 male and 10 female, were randomly divided into the control group and the administration group. The control group received intraperitoneal injection of physiological saline from Day 1 to Day 7 and subcutaneous injection of Isoprel at a dosage of 0.3 ml (7.5 mg/kg) on Day 5 and Day 6. The ginsenoside monomer Rb2 administration group received intraperitoneal injection of ginsenoside monomer Rb2 at a dosage of 40 mg/kg for 4 consecutive days; subcutaneous injection of Isoprel at a dosage of 0.3 ml (7.5 mg/kg) followed by intraperitoneal injection of ginsenoside monomer Rb2 at a dosage of 40 mg/kg on Day 5; intraperitoneal injection of ginsenoside monomer Rb2 at a dosage of 40 mg/kg followed by subcutaneous injection of Isoprel on Day 6. On Day 7, 30 min after intraperitoneal injection of ginsenoside monomer Rb2, the auricle microcirculation was determined. The data obtained from the study were subjected to t-test between groups.

[3] = system: Wistar rats; test: Reperfusion injury after bilateral common carotid artery clamping, morphological examination of cerebral tissue; format: in vivo; conditions: Rb2 purity 90%, 10 mg/kg iv after reperfusion, brains examined 1 hour after administration
Method: Male Wistar rats weighing 300±20 g were supplied by the Animal Office of Tianjin Institute of Pharmaceutical Research.
Rb2 was prepared with NS in a ratio of […] for intravenous injection in rats before use.
30 rats were randomly divided into 3 groups with 10 rats in each group. The sham operation group received (iv) physiological saline, the model group received (iv) physiological saline and the Rb2 (with a purity of 90%) group received (iv) 10 mg/kg. All groups were administered through intravenous injection after reperfusion injury.
The rats were weighed at the time of experiment. They were anaesthetized by urethane (lg/kg) through intraperitoneal injection, laid on their back on the operation table, and cut in the middle of the neck. The common carotid arteries on both sides were dissected and clamped using small-sized artery clamps. 2 hours later, the clamps were loosened to restore blood supply, and the animals were given intravenous administration immediately. The rats were decapitated 1 hour after the administration, the brains were removed and placed into a 10% formaldehyde solution for fixation, followed by morphological examination of the cerebral tissue.

[4] = system: arteriovenous shunt thrombus in rats; test: Arteriovenous shunt thrombosis method, in vivo thrombolytic effect; design: species or system Winstar rats; conditions: femoral vein injection given twice
Method: Arteriovenous shunt thrombosis method was applied in Winstar rats to observe the inhibition of thrombosis in rats. Under intraperitoneal anesthesia with mebumal sodium, a polyethylene tube penetrated by a silk thread was placed between the right common carotid artery and the left external jugular vein, to allow blood flow through the thread for 15 min. Upon formation of a thrombus, the test agents were injected into femoral vein, and again after an interval of 15 min, both of the same dosage. 45 min post administration, the silk thread was removed rapidly and weighed. Subtraction of the weight of silk thread from the total weight yielded the weight of the thrombus (mg). The thrombus was dried in an oven at a temperature of 60° C. for 4 hours, so as to give the dry weight (mg) of the thrombus.

[5] = system: mice; test: Effect of Rb2 (~60%) on auricle microcirculation in mice; format: in vivo; conditions: 120 mg/10 ml/kg intragastric for 3 days, 30 minutes after last administration
Method: 20 mice, 10 male and 10 female, were randomly divided into the control group and the administration group. Animals in the administration group received intragastric administration of Rb2 at 120 mg/10 ml/kg for 3 days. Animals in the control group were given water of the same volume. The calibers, flow rate and flow pattern of V3 grade arteriole and venule were determined 30 minutes after the last administration. The data obtained from the study was subjected to t-test between groups.

[6] = system: KunMing mice; test: Degree of cardiomyopathy (HE staining of heart) in Isoprel-induced acute myocardial necrosis; format: in vivo; conditions: 40 mg/kg intraperitoneal, Isoprel-treated mice, of 10 animals
Method: as §1
After the determination of auricle microcirculation, animals were sacrificed and heart samples were removed for HE staining for microscopic examination. The samples were classified according to the grading standards for cardiomyopathy.

[7] = system: blood clots; test: In vitro thrombolytic effect on rat blood clots (6 h, 37° C.); format: biochemical, rats
Method: Rats used in the study were anaesthetized by urethane. Blood samples were taken from abdominal aorta, placed in plastic tubes, and were removed after 24 hours of coagulation. The blood clot was semi-blotted with filter paper and cut into pieces. 90 to 120 mg blood clots were accurately weighed and put into test tubes, to which NS, an Rb2 solution of 200 μg/ml, 100 μg/ml, or 50 μg/ml, or a urokinase solution of 50 U/ml, in a volume of 1 ml was added, respectively, and were then placed into a thermostatic horizontal shaking bath at a temperature of 37° C. and with a shaking frequency of 90 times/min for 6 hours. The undissolved blood clots were removed and weighed after semi-blotting with filter paper. The relative thrombolysis rate was calculated. SPSS 10.0 statistical software was used to perform t test among groups.

`CC(C)=CCC[C@](C)(O[C@@H]1O[C@H](CO[C@@H]2OC[C@H](O)[C@H](O)[C@H]2O)[C@@H](O)[C@H](O)[C@H]1O)[C@H]1CC[C@]2(C)[C@@H]1[C@H](O)C[C@@H]1[C@@]3(C)CC[C@H](O[C@@H]4O[C@H](CO)[C@@H](O)[C@H](O)[C@H]4O[C@@H]4O[C@H](CO)[C@@H](O)[C@H](O)[C@H]4O)C(C)(C)[C@@H]3CC[C@]12C` [Rb2 (98%), ginsenoside Rb2] was tested, and the “Final weight of thrombus” value ([1]; 1 mg/ml in NS) was 5.5 ± 3.2 mg and the Thrombolysis rate % ([1]; 1 mg/ml in NS) was 71.5%.

Work on `CC(C)=CCC[C@](C)(O[C@@H]1O[C@H](CO[C@@H]2OC[C@H](O)[C@H](O)[C@H]2O)[C@@H](O)[C@H](O)[C@H]1O)[C@H]1CC[C@]2(C)[C@@H]1[C@H](O)C[C@@H]1[C@@]3(C)CC[C@H](O[C@@H]4O[C@H](CO)[C@@H](O)[C@H](O)[C@H]4O[C@@H]4O[C@H](CO)[C@@H](O)[C@H](O)[C@H]4O)C(C)(C)[C@@H]3CC[C@]12C` [Rb2, ginsenoside Rb2] yielded a Blood flow velocity [2] of 238 ± 22.59 um/s, a Caliber of artery [2] of 39.08 ± 1.80 um and a Caliber of vein [2] of 59.9 ± 3.58 um. The “Pathological changes of cerebral edema and cerebral ischemia vs model control group” value [3] was “alleviated remarkably”, the “Dry weight of thrombus” value ([4]; Rb2 purity 93.9%, 2.5 mg/kg) was 8.50 ± 1.91 mg and the “Inhibition % (dry weight of thrombus)” value ([4]; Rb2 purity 93.9%, 2.5 mg/kg) was 15.59%. The “Inhibition % (wet weight of thrombus)” value ([4]; Rb2 purity 93.9%, 2.5 mg/kg) was 8.71%, the “Wet weight of thrombus” value ([4]; Rb2 purity 93.9%, 2.5 mg/kg) was 31.75 ± 8.54 mg and the “Dry weight of thrombus” value ([4]; Rb2 purity 93.9%, 5 mg/kg) was 6.60 ± 1.35 mg. For the same molecule, the “Inhibition % (dry weight of thrombus)” value ([4]; Rb2 purity 93.9%, 5 mg/kg) was 34.46%, the “Inhibition % (wet weight of thrombus)” value ([4]; Rb2 purity 93.9%, 5 mg/kg) was 34.73% and the “Wet weight of thrombus” value ([4]; Rb2 purity 93.9%, 5 mg/kg) was 22.70 ± 4.94 mg. For the same molecule, the “Dry weight of thrombus” value ([4]; Rb2 purity 93.9%, 10 mg/kg) was 6.87 ± 1.73 mg, the “Inhibition % (dry weight of thrombus)” value ([4]; Rb2 purity 93.9%, 10 mg/kg) was 31.72% and the “Inhibition % (wet weight of thrombus)” value ([4]; Rb2 purity 93.9%, 10 mg/kg) was 23.43%. The “Wet weight of thrombus” value ([4]; Rb2 purity 93.9%, 10 mg/kg) was 26.63 ± 5.04 mg, the Input branch [5] was 36.42 ± 0.81[…] um/s and the Output branch [5] was 65.77 ± 3.14 um/s. For the same molecule, the Thrombolysis rate % ([1]; 1 mg/ml in NS, listed as Ginsenoside monomer Rb2) was at least 70%, the “Degree of cardiomyopathy +++, number of animals” value [6] was 1 and the “Degree of cardiomyopathy ++, number of animals” value [6] was 2. For the same molecule, the “Degree of cardiomyopathy +, number of animals” value [6] was 3, the “Degree of cardiomyopathy −, number of animals” value [6] was 4 and the Relative thrombolysis % ([7]; 50 μg/ml) was 27.4 ± 8.3 %. For the same molecule, the “Weight of blood clot After lysis” value ([7]; 50 μg/ml) was 78.9 ± 17.8 mg, the Relative thrombolysis % ([7]; 100 μg/ml) was 28.0 ± 9.1 % and the “Weight of blood clot After lysis” value ([7]; 100 μg/ml) was 81.4 ± 13.4 mg. For the same molecule, the Relative thrombolysis % ([7]; 200 μg/ml) was 27.1 ± 9.1 % and the “Weight of blood clot After lysis” value ([7]; 200 μg/ml) was 81.8 ± 13.4 mg.

Urokinase [reference compound] was tested, and the “Dry weight of thrombus” value ([4]; 5000 U (5000 U/kg)) was 6.62 ± 1.85 mg, the “Inhibition % (dry weight of thrombus)” value ([4]; 5000 U (5000 U/kg)) was 34.26% and the “Inhibition % (wet weight of thrombus)” value ([4]; 5000 U (5000 U/kg)) was 25.37%. The “Wet weight of thrombus” value ([4]; 5000 U (5000 U/kg)) was 25.37 ± 6.37 mg, the “Final weight of thrombus” value ([1]; 1000 U/ml in NS) was 0 mg and the Thrombolysis rate % ([1]; 1000 U/ml in NS) was 100%. The Relative thrombolysis % ([7]; 50 U/ml) was 32.7 ± 10.0 % and the “Weight of blood clot After lysis” value ([7]; 50 U/ml) was 73.8 ± 11.3 mg.

From patent US20100168406A1, “USE OF GINSENOSIDE Rb2 MONOMER IN THE MANUFACTURE OF MEDICAMENTS FOR THROMBOLYSIS” (priority 2006, published 2010)
